Target: T1, androgen receptor (AR) (Homo sapiens, UniProt P10275, T878A)
T1 construct: endogenous in cells; host or cells: LNCAP
T1 sequence (P10275 1-920 T878A): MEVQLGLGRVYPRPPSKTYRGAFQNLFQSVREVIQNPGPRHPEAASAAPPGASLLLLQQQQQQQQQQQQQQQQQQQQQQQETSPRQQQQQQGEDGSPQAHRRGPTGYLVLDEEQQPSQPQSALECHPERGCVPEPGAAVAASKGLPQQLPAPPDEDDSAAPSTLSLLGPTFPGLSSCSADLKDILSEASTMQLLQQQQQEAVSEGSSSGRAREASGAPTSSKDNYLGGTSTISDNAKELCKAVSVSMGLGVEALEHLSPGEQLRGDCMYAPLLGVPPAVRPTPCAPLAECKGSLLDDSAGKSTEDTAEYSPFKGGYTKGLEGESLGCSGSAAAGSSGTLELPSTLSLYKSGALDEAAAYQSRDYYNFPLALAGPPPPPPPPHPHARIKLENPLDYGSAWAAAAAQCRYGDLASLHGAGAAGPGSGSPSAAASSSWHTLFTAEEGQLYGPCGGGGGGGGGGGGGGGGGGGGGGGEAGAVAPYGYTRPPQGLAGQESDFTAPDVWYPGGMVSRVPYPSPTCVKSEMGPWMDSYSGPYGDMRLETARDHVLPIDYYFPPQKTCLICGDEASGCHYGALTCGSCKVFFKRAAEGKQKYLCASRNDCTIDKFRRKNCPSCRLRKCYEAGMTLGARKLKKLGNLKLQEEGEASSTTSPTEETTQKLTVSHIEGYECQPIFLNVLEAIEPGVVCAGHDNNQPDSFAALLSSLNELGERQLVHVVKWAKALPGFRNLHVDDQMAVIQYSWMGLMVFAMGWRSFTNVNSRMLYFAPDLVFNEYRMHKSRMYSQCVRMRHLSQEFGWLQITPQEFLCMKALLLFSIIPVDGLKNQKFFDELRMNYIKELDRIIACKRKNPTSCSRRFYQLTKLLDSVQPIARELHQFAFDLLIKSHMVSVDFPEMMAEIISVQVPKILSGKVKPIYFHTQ
Assay: AR degradation in LNCAP cells (Western blot)
Type: cell-based
Conditions: 24 hours after administration
Experimental: LNCAP, VCAP and 22Rv1 cells were plated in 24-well plates at 1.5×10E5 cells/well in the RPMI growth medium containing 10% FBS and 1% Penicillin Streptomycin, and then incubated at 37° C. overnight. The following day, the test compound was administered to the cells by using 1000× compound stock solution prepared in DMSO at various concentrations. After administration of the compound, the cells were then incubated at 37° C. for 24 hours. Upon completion, the cells were washed with PBS and protein was collected in Laemmli sample buffer (1×; VWR International). Proteins in cell lysate were separated by SDS-PAGE and transferred to Odyssey nitrocellulose membranes (Licor) with iblot® dry blotting transfer system (ThermoFisher). Nonspecific binding was blocked by incubating membranes with Intercept Blocking Buffer (Licor) for 1 hour at room temperature with gentle shaking. The membranes were then incubated overnight at 4° C. with Primary antibodies rabbit anti-AR (1:1,000, Cell Signaling, 5153) and mouse anti-GAPDH (1:5,000, Santa Cruz Biotechnology, sc-47724) diluted in Intercept Blocking Buffer containing 0.1% Tween 20. After washing 3 times with TBS-T, the membranes were incubated with IRDye® […] goat anti-mouse IgG (1:20,000, Licor) or IRDye® […] goat anti-rabbit IgG (1:20,000, Licor) for 1 hour. After TBS-T washes, membranes were rinsed in TBS and scanned on Odyssey® CLx Imaging System (Licor). The bands were quantified using Image Studio™ Software (Licor).
Tables 5 and 6 summarize the androgen receptor (AR) degradative activity of exemplary compounds in LNCAP, VCAP and 22Rv1 cell lines 24 hours after administration. DC50: compound concentration needed for 50% target protein degradation.

SMILES	DC50 [nM]
CC(C)N(CC1CCN(c2ccc(NC(=O)N3C[C@H](C)N(c4ccc(C#N)c(Cl)c4)C[C@H]3C)cn2)CC1)C1CC(Oc2ccc3c(c2)C(=O)N(C2CCC(=O)NC2=O)C3=O)C1 (stereo partly drawn) [Compound 1-12, (2R,5S)-4-(3-chloro-4-cyanophenyl)-N-(6-(4-((((1s,3s)-3-((2-(2,6-dioxopiperidin-3-yl)-1,3-dioxoisoindolin-5-yl)oxy)cyclobutyl)(isopropyl)amino)methyl)piperidin-1-yl)pyridin-3-yl)-2,5-dimethylpiperazine-1-carboxamide]	10 to 100
C[C@@H]1CN(c2ccc(C#N)c(Cl)c2)[C@@H](C)CN1C(=O)Nc1cnc(N2CCC(CN3CCN(c4cc5c(cc4F)C(=O)N(C4CCC(=O)NC4=O)C5=O)CC3)CC2)nc1 (stereo partly drawn) [Compound 1-41, (2R,5S)-4-(3-chloro-4-cyanophenyl)-N-(2-(4-((4-(2-(2,6-dioxopiperidin-3-yl)-6-fluoro-1,3-dioxoisoindolin-5-yl)piperazin-1-yl)methyl)piperidin-1-yl)pyrimidin-5-yl)-2,5-dimethylpiperazine-1-carboxamide]	≤ 10
C[C@@H]1CN(c2ccc(C#N)c(Cl)c2)[C@@H](C)CN1C(=O)Nc1ccc(N2CCC(CN3CCN(c4ccc5c(c4)CN([C@H]4CCC(=O)NC4=O)C5=O)CC3)CC2)c(F)c1 [Compound 1-46, (2R,5S)-4-(3-chloro-4-cyanophenyl)-N-(4-(4-((4-(2-((S)-2,6-dioxopiperidin-3-yl)-1-oxoisoindolin-5-yl)piperazin-1-yl)methyl)piperidin-1-yl)-3-fluorophenyl)-2,5-dimethylpiperazine-1-carboxamide]	≤ 10
C[C@@H]1CN(c2ccc(C#N)c(Cl)c2)[C@@H](C)CN1C(=O)Nc1ccc(N2CCC(CCN3CCN(c4ccc5c(c4)C(=O)N(C4CCC(=O)NC4=O)C5=O)CC3)CC2)nc1 (stereo partly drawn) [Compound 1-19, (2R,5S)-4-(3-chloro-4-cyanophenyl)-N-(6-(4-(2-(4-(2-(2,6-dioxopiperidin-3-yl)-1,3-dioxoisoindolin-5-yl)piperazin-1-yl)ethyl)piperidin-1-yl)pyridin-3-yl)-2,5-dimethylpiperazine-1-carboxamide]	≤ 10
C[C@@H]1CN(c2ccc(C#N)c3ncccc23)[C@@H](C)CN1C(=O)Nc1cc(F)c(N2CCC(CN3CCN(c4ccc5c(c4)C(=O)N(C4CCC(=O)NC4=O)C5=O)CC3)CC2)cc1F (stereo partly drawn) [Compound 2-17, (2R,5S)-4-(8-cyanoquinolin-5-yl)-N-(4-(4-((4-(2-(2,6-dioxopiperidin-3-yl)-1,3-dioxoisoindolin-5-yl)piperazin-1-yl)methyl)piperidin-1-yl)-2,5-difluorophenyl)-2,5-dimethylpiperazine-1-carboxamide]	> 100
C[C@@H]1CN(c2ccc(C#N)c(Cl)c2)[C@@H](C)CN1C(=O)Nc1ccc(N2CCC(CN3CCN(c4ccc5c(c4)C(=O)N(C4CCC(=O)NC4=O)C5=O)CC3)CC2)c(F)c1 (stereo partly drawn) [Compound 1-47, (2R,5S)-4-(3-chloro-4-cyanophenyl)-N-(4-(4-((4-(2-(2,6-dioxopiperidin-3-yl)-1,3-dioxoisoindolin-5-yl)piperazin-1-yl)methyl)piperidin-1-yl)-3-fluorophenyl)-2,5-dimethylpiperazine-1-carboxamide]	≤ 10
COc1cc(N2C[C@@H](C)N(C(=O)Nc3ccc(N4CCC(CN5CCN(c6ccc7c(c6)C(=O)N(C6CCC(=O)NC6=O)C7=O)CC5)CC4)cc3F)C[C@@H]2C)ccc1C#N (stereo partly drawn) [Compound 1-25, (2R,5S)-4-(4-cyano-3-methoxyphenyl)-N-(4-(4-((4-(2-(2,6-dioxopiperidin-3-yl)-1,3-dioxoisoindolin-5-yl)piperazin-1-yl)methyl)piperidin-1-yl)-2-fluorophenyl)-2,5-dimethylpiperazine-1-carboxamide]	≤ 10
C[C@@H]1CN(c2ccc(C#N)c(C(F)(F)F)c2)[C@@H](C)CN1C(=O)Nc1cnc(N2CCC(CN3CCN(c4ccc5c(c4)CN([C@H]4CCC(=O)NC4=O)C5=O)CC3)CC2)nc1 [Compound 1-49, (2R,5S)-4-(4-cyano-3-(trifluoromethyl)phenyl)-N-(2-(4-((4-(2-((S)-2,6-dioxopiperidin-3-yl)-1-oxoisoindolin-5-yl)piperazin-1-yl)methyl)piperidin-1-yl)pyrimidin-5-yl)-2,5-dimethylpiperazine-1-carboxamide]	≤ 10
C[C@@H]1CN(c2ccc(C#N)c3ncccc23)[C@@H](C)CN1C(=O)Nc1cnc(N2CCC(CN3CCN(c4cc5c(cc4F)C(=O)N(C4CCC(=O)NC4=O)C5=O)CC3)CC2)nc1 (stereo partly drawn) [Compound 2-23, (2R,5S)-4-(8-cyanoquinolin-5-yl)-N-(2-(4-((4-(2-(2,6-dioxopiperidin-3-yl)-6-fluoro-1,3-dioxoisoindolin-5-yl)piperazin-1-yl)methyl)piperidin-1-yl)pyrimidin-5-yl)-2,5-dimethylpiperazine-1-carboxamide]	> 100
CCN(CC1CCN(c2ccc(NC(=O)N3C[C@H](C)N(c4ccc(C#N)c(Cl)c4)C[C@H]3C)cn2)CC1)C1CC(Oc2ccc3c(c2)C(=O)N(C2CCC(=O)NC2=O)C3=O)C1 (stereo partly drawn) [Compound 1-10, (2R,5S)-4-(3-chloro-4-cyanophenyl)-N-(6-(4-((((1r,3r)-3-((2-(2,6-dioxopiperidin-3-yl)-1,3-dioxoisoindolin-5-yl)oxy)cyclobutyl)(ethyl)amino)methyl)piperidin-1-yl)pyridin-3-yl)-2,5-dimethylpiperazine-1-carboxamide]	10 to 100
C[C@@H]1CN(c2ccc(C#N)c(Cl)c2)[C@@H](C)CN1C(=O)Nc1ccc(N2CCC(CN3CCN(c4cc5c(cc4F)C(=O)N([C@H]4CCC(=O)NC4=O)C5=O)CC3)CC2)nc1 [Compound 1-54, (2R,5S)-4-(3-chloro-4-cyanophenyl)-N-(6-(4-((4-(2-(2,6-dioxopiperidin-3-yl)-6-fluoro-1,3-dioxoisoindolin-5-yl)piperazin-1-yl)methyl)piperidin-1-yl)pyridin-3-yl)-2,5-dimethylpiperazine-1-carboxamide]	≤ 10
COc1cc(N2C[C@@H](C)N(C(=O)Nc3cnc(N4CCC(CN5CCN(c6ccc7c(c6)CN([C@H]6CCC(=O)NC6=O)C7=O)CC5)CC4)nc3)C[C@@H]2C)ccc1C#N [Compound 1-52, (2R,5S)-4-(4-cyano-3-methoxyphenyl)-N-(2-(4-((4-(2-((S)-2,6-dioxopiperidin-3-yl)-1-oxoisoindolin-5-yl)piperazin-1-yl)methyl)piperidin-1-yl)pyrimidin-5-yl)-2,5-dimethylpiperazine-1-carboxamide]	≤ 10
CC(C)N(CC1CCN(c2ccc(NC(=O)N3C[C@H](C)N(c4ccc(C#N)c(Cl)c4)C[C@H]3C)cn2)CC1)C1CC(Oc2ccc3c(c2)C(=O)N(C2CCC(=O)NC2=O)C3=O)C1 (stereo partly drawn) [Compound 1-11, (2R,5S)-4-(3-chloro-4-cyanophenyl)-N-(6-(4-((((1r,3r)-3-((2-(2,6-dioxopiperidin-3-yl)-1,3-dioxoisoindolin-5-yl)oxy)cyclobutyl)(isopropyl)amino)methyl)piperidin-1-yl)pyridin-3-yl)-2,5-dimethylpiperazine-1-carboxamide]	≤ 10
COc1cc(N2C[C@@H](C)N(C(=O)Nc3ccc(N4CCC(CN5CCN(c6cc7c(cc6F)C(=O)N([C@H]6CCC(=O)NC6=O)C7)CC5)CC4)c(F)c3)C[C@@H]2C)ccc1C#N [Compound 1-55, (2R,5S)-4-(4-cyano-3-methoxyphenyl)-N-(4-(4-((4-(2-((S)-2,6-dioxopiperidin-3-yl)-6-fluoro-1-oxoisoindolin-5-yl)piperazin-1-yl)methyl)piperidin-1-yl)-3-fluorophenyl)-2,5-dimethylpiperazine-1-carboxamide]	≤ 10
